Measurements published in patent US20130280169A1, “CENTRAL NERVOUS SYSTEM TISSUE-LABELING COMPOSITION, METHOD FOR LABELING CENTRAL NERVOUS SYSTEM TISSUE, AND SCREENING METHOD USING CENTRAL NERVOUS SYSTEM TISSUE-LABELING COMPOSITION” (CANON KABUSHIKI KAISHA, priority 2009, published 2013).

Key:
[1] = tested on: central nervous system tissues of juvenile zebrafish (7 dpf); assay: Labeling the central nervous system tissue of live 7 dpf juvenile zebrafish by immersion in labeling solution; settings: 7 dpf juvenile zebrafish; for Fluorescence sensitivity: one hour (Table 3)
Method: Subsequently, the labeling solution 1 in the well was removed and replaced by 1 mL of distilled water. This operation was repeated three times. Then, juvenile zebrafish was removed from the well and embedded in 5% low melting point agarose gel on a slide glass so as to restrict movement, and the state of labeling in the central nervous system tissues were observed from the lateral side of zebrafish by a fluorescence stereomicroscope (manufactured by Leica Microsystems, MZ16FA). Also, the brain nerve tissues were observed from the parietal region by a confocal microscope (manufactured by Carl Zeiss, Inc., Pascal Exciter).

[2] = Excitation and fluorescence wavelength by FL4500 fluorescence spectrophotometer
[3] = tested on: brain of juvenile zebrafish; settings: according to Patent Literature 3; cited from earlier work
[4] = 5 μM chloroform solution (Examples 30 to 34)
[5] = 5 ηM DMSO solution (Examples 35 to 46)

CCCCn1c(=O)cc2c3c(c(NC4CCCCC4)ccc31)C(=O)c1ccccc1-2 [Compound 30]
Fluorescence sensitivity ([1]; labeling solution 1 μg/mL): + | Excitation wavelength λex [2, 4]: 548 | Fluorescence wavelength λem [2, 4]: 575

CCCCC(CC)CNc1ccc2c3c(cc(=O)n2CCCC)-c2ccccc2C(=O)c13 (stereo not shown) [Compound 31]
Fluorescence sensitivity ([1]; labeling solution 1 μg/mL): + | Excitation wavelength λex [2, 4]: 547 | Fluorescence wavelength λem [2, 4]: 574

CCCCn1c(=O)cc2c3c(c(NCCC4=CCCCC4)ccc31)C(=O)c1ccccc1-2 [Compound 32]
Fluorescence sensitivity ([1]; labeling solution 1 μg/mL): + | Excitation wavelength λex [2, 4]: 544 | Fluorescence wavelength λem [2, 4]: 573

CCCCOCCCNc1ccc2c3c(cc(=O)n2CCCC)-c2ccccc2C(=O)c13 [Compound 33]
Fluorescence sensitivity ([1]; labeling solution 1 μg/mL): + | Excitation wavelength λex [2, 4]: 544 | Fluorescence wavelength λem [2, 4]: 573

O=C(O)CCN1C(=O)/C(=C\c2cc(Br)c3c(c2)C2CCCC2N3c2ccc(Br)cc2)SC1=S (stereo not shown) [Compound 34]
Fluorescence sensitivity ([1]; labeling solution 1 μg/mL): + | Excitation wavelength λex [2, 5]: 474 | Fluorescence wavelength λem [2, 5]: 590

COc1ccc(N2c3ccc(/C=C4/SC(=S)N(CCC(=O)O)C4=O)cc3C3CCCC32)cc1 (stereo not shown) [Compound 35]
Fluorescence sensitivity ([1]; labeling solution 1 μg/mL): ++ | Excitation wavelength λex [2, 5]: 521 | Fluorescence wavelength λem [2, 5]: 634

O=C(O)CCN1C(=O)/C(=C\c2ccc3c(c2)C2CCCC2N3Cc2ccccc2)SC1=S (stereo not shown) [Compound 36]
Fluorescence sensitivity ([1]; labeling solution 1 μg/mL): + | Excitation wavelength λex [2, 5]: 510 | Fluorescence wavelength λem [2, 5]: 584

O=C(O)CCN1C(=O)/C(=C\c2ccc3c(c2)C2CCCC2N3c2ccccc2)SC1=S (stereo not shown) [Compound 37]
Fluorescence sensitivity ([1]; labeling solution 1 μg/mL): ++ | Excitation wavelength λex [2, 5]: 502 | Fluorescence wavelength λem [2, 5]: 604

COc1ccc2cc(N3c4ccc(/C=C5/SC(=S)N(CCC(=O)O)C5=O)cc4C4CCCC43)ccc2c1 (stereo not shown) [Compound 38]
Fluorescence sensitivity ([1]; labeling solution 1 μg/mL): + | Excitation wavelength λex [2, 5]: 521 | Fluorescence wavelength λem [2, 5]: 646

CN1c2ccc(/C=C3/SC(=S)N(CCC(=O)O)C3=O)cc2C2CCCC21 (stereo not shown) [Compound 39]
Fluorescence sensitivity ([1]; labeling solution 1 μg/mL): ++ | Excitation wavelength λex [2, 5]: 517 | Fluorescence wavelength λem [2, 5]: 590

CCN1c2ccc(/C=C3/SC(=S)N(CCC(=O)O)C3=O)cc2CC1C (stereo not shown) [Compound 40]
Fluorescence sensitivity ([1]; labeling solution 1 μg/mL): ++ | Excitation wavelength λex [2, 5]: 509 | Fluorescence wavelength λem [2, 5]: 593

CCn1c2ccccc2c2cc(/C=C3/SC(=S)N(CCC(=O)O)C3=O)ccc21 [Compound 41]
Fluorescence sensitivity ([1]; labeling solution 1 μg/mL): + | Excitation wavelength λex [2, 5]: 452 | Fluorescence wavelength λem [2, 5]: 540

CCCN1c2ccc(/C=C3/SC(=S)N(CCC(=O)O)C3=O)cc2C2CCCC21 (stereo not shown) [Compound 42]
Fluorescence sensitivity ([1]; labeling solution 1 μg/mL): ++ | Excitation wavelength λex [2, 5]: 519 | Fluorescence wavelength λem [2, 5]: 592

CCN1c2ccc(/C=C/C=C3/SC(=S)N(CCC(=O)O)C3=O)cc2C2CCCC21 (stereo not shown) [Compound 43]
Fluorescence sensitivity ([1]; labeling solution 1 μg/mL): ++ | Excitation wavelength λex [2, 5]: 564 | Fluorescence wavelength λem [2, 5]: 671

CSc1ccc(N2c3ccc(/C=C4/SC(=S)N(CCC(=O)O)C4=O)cc3C3CCCC32)cc1 (stereo not shown) [Compound 44]
Fluorescence sensitivity ([1]; labeling solution 1 μg/mL): ++ | Excitation wavelength λex [2, 5]: 518 | Fluorescence wavelength λem [2, 5]: 647

CCN1CCc2cc(/C=C3/SC(=S)N(CCC(=O)O)C3=O)ccc21 [Compound 45]
Fluorescence sensitivity ([1]; labeling solution 45 with 3 μg/mL dye compound): + | Excitation wavelength λex [2, 5]: 510 | Fluorescence wavelength λem [2, 5]: 597

Cc1cc(-c2ccc(/N=N/c3ccc4c(S(=O)(=O)O)cc(S(=O)(=O)O)c(N)c4c3O)c(C)c2)ccc1/N=N/c1ccc2c(S(=O)(=O)O)cc(S(=O)(=O)O)c(N)c2c1O [Evans blue]
Migration of administered dye into the brain confirmed up to [3]: up to 4 dpf

O=C1OC2(c3ccc(O)cc3Oc3cc(O)ccc32)c2ccccc21 [Fluorescein, reference compound]
Labeling property ([1]; labeling solution 1 μg/mL, one hour): − | Migration of administered dye into the brain confirmed up to [3]: ≤ 8 dpf

rhodamine 123
Migration of administered dye into the brain confirmed up to [3]: ≤ 5 dpf
